# Peptide text beside a SMILES is read from it. * marks the point of attachment. Cbz = O=C(OCc1ccccc1)*
# What was measured:
# HRE2 = assay: Western blot of HRE2 protein levels in vivo after cPTIO treatment; design: species or system Arabidopsis; settings: 35S CaMV promoter
# Description: FIG. 14D Stability of the physiological substrate HRE2 is controlled by NO. Western blot showing levels of HRE2 protein in-vivo (constitutive gene transcription produced from the 35S CaMV promoter).
# MC-GUS = assay: Western analysis of MC-GUS protein levels in seedlings treated with cPTIO; assay type: in vivo, Arabidopsis; settings: WT Col-0 seedlings treated with cPTIO
# Description: FIG. 14C Stability of MC-GUS in Col-0 is related to NO.
# maplA mutant seeds = assay: Seed sensitivity to ABA on germination in the presence of fumagillin; assay type: in vivo, Arabidopsis
# Description: FIG. 13B Proteins initiating MC control seed sensitivity to ABA.
# [1] = tested on: N-end rule pathway of targeted proteolysis (NERP); assay: In vitro protein stability, heterologous rabbit reticulocyte lysate assay (TNT T7 Coupled Reticulocyte Lysate system, anti-HA immunoblot); assay type: biochemical; settings: for effect on in vitro stability of Arabidopsis Group VII ERFs: HA-tagged ERFs in reticulocyte lysate, 100 μM MG132 or 1 mM dipeptides; for MC-GUS degradation in the presence of the inhibitor: MC-GUS produced in rabbit reticulocyte lysate
# Protocol: Protein stability analyses. Full length cDNAs were PCR amplified from either Arabidopsis thaliana or Oryza sativa L. (cv. M202 (Sub1)). N-terminal mutations were introduced using a specific forward primer. For in vitro assays, cDNAs were cloned into a modified version of the pTNT vector (Promega) to produce C-terminal HA fusions. Stability assays were performed using the TNT T7 Coupled Reticulocyte Lysate system (Promega), essentially as described previously^23. For in vivo analysis of EIRE-HA proteins, cDNAs were cloned into pE2c, mobilized into pB2GW7 and transformed into Arabidopsis using the floral dip method. To Assess relative protein stability, equal amounts of total protein extracted from 7-day old T3 homozygous seedlings were analyzed by Western blot, and cDNA synthesized from total RNA was used as a template for semi-quantitative PCR.
# In vitro analysis of protein stability: To generate Arabidopsis and rice protein-HA fusions driven by the T7 promoter, cDNAs were PCR amplified from Arabidopsis total cDNA or submerged rice cDNA (M202 (Sub1); as described^3 and ligated into a modified version of the pTNT […] expression vector (pTNT3xHA). N-terminal mutations were incorporated by changing the forward primer sequences accordingly (Table 1). Proteins were expressed in vitro using the TNT T7 Coupled Reticulocyte Lysate system (Promega) according to manufacturer's guidelines, using 500 ng plasmid template. Where appropriate, 100 μM MG132 or 1 mM dipeptides (arg-β-ala or ala-ala; Sigma-Aldrich) and […] Bestatin (Sigma-Aldrich) were added. Reactions were incubated at 30° C., and samples were taken at appropriate time points before mixing with protein loading dye to terminate protein synthesis. Equal amounts of each reaction were subjected to anti-HA immunoblot analysis.
# Immunoblotting: Proteins resolved by SDS-PAGE were transferred to PVDF using a MiniTrans-Blot electrophoretic transfer cell (Bio-Rad). Membranes were probed with primary antibodies at the following titres: anti-HA (Sigma-Aldrich), 1:1000; anti-α-tubulin (Sigma-Aldrich), 1:5,000, or anti-ribosomal protein 5636, (1:5,000). HRP conjugated anti-mouse secondary antibody (Santa Cruz) was used at a titre of 1:10,000. Immunoblots were developed to film using ECL Western blotting substrate (Pierce). Alignment of MC-ERF proteins from Arabidopsis and Rice: Rice and Arabidopsis ERF proteins starting with the sequence MC- were aligned and phylogenetic relationships observed using CLUSTALW37.
# We investigated the possibility that all Arabidopsis Group VII ERFs as well as rice SUB1A-1 were NERP substrates.
Compound,effect on HRE2 protein level (HRE2),effect on MC-GUS protein level (MC-GUS),seed sensitivity to ABA when germinated in the presence of fumagillin (maplA mutant seeds),effect on in vitro stability of Arabidopsis Group VII ERFs [1],MC-GUS degradation in the presence of the inhibitor [1]
CC1(C)N([O])C(c2ccc(C(=O)O)cc2)=[N+]([O-])C1(C)C [cPTIO],stabilises the protein,MC-GUS protein accumulates,–,–,–
CO[C@@H]1[C@H](OC(=O)/C=C/C=C/C=C/C=C/C(=O)O)CC[C@]2(CO2)[C@H]1[C@@]1(C)O[C@@H]1CC=C(C)C [fumagillin],–,–,hypersensitive to ABA,–,–
Arg-Ala,–,–,–,stability was enhanced,not degraded
CC(C)C[C@@H](C=O)NC(=O)[C@H](CC(C)C)NC(=O)[C@H](CC(C)C)NC(=O)OCc1ccccc1 [MG132] (Cbz-Leu-Leu-Leu-aldehyde),–,–,–,stability was enhanced,not degraded

# Source: patent US20170088851A1, “METHODS FOR IMPROVING ABIOTIC STRESS RESPONSE” (The Regents of the University of California, priority 2011, published 2017)
